From US20250302762A1, “NANOMATERIAL DELIVERY VEHICLE AND METHOD OF USE THEREOF” (University of Connecticut, priority 2022, published 2025)

How the values were obtained:
[1] = Buffering capacity (acid-base titration), proton sponge effect; assay type: physicochemical; conditions: FIG. 4D
Procedure: JBNP Characterization. The particles and ζ potential of the JBNPs were measured by dynamic light scattering (Zetasizer) and the morphology was observed by transmission electron microscope (TEM). The get retardation assay was conducted at 0.8% low-melting agarose gel followed by electrophoresis. The UV-Vis absorption spectra were recorded with a NanoDrop One. The buffering capacity of JBNPs and polymers, JBNP and cationic polymers at the same 0.08 μmol were titrated by either adding the 2 μL of 10 mM HCl or 10 mM NaOH.

[2] = system: cells; test: Delivery of small RNAs, mRNAs and albumin via Arg-JBNP; assay type: cell-based; conditions: FIGS. 3A-3E
Procedure: Multi-functional JBNPs. Multi-functional JBNPs were prepared by mixing a cargo molecule (e.g., RNA, biologically active small molecule, protein) with the multi-functional JBNT at an appropriate molar ratio in nuclease-free water, followed by sonication with a sonicator at 100% amplitude, for 2 min and 30 s, at room temperature. The concentrations of different components are shown as below: c(JBNT)=1 mg/mL; c(siRNA)=5 uM; c(mRNA)=0.05 mg/mL. c(protein)=0.1 mg/mL. The ratios (volume to volume ratio) for each cargo: (4:1 ratio (Arg-JBNT:siRNA), (20:1 ratio Arg-JBNT:mRNA), (3:1 Arg-JBNT: protein).
Arg-JBNP-siRNA were assembled by mixing Arg-JBNT(1 mg/ml) and siRNA-AF488 (5 uM) in nuclease-free water as ratio of volume to volume of 4:1. Arg-JBNP-mRNA were assembled by mixing Arg-JBNT (1 mg/ml) to Cas9mRNA (0.05 mg/ml) as ratio of volume to volume of 20:1. Arg-JBNP-albumin were assembled by mixing Arg-JBNT (1 mg/ml) to albumin (0.1 mg/ml) as ratio of volume to volume, 3:1. Then mixture of Arg-JBNT and cargoes in nuclease-free water are sonicated with sonicator at 100% amplitude for 2 min and 30 sec.

proton-sponge effect capacity [1]	SMILES	delivery of cargo [2]
superior proton-sponge effect capacity	CNc1nc2c(c(N)nc(=O)n2CCN[C@@H](Cc2c[nH]cn2)C(=O)O)c(=O)[nH]1 [Histidine-JBNTs]	–
–	CNc1nc2c(c(N)nc(=O)n2CCN[C@@H](CCCNC(=N)N)C(=O)O)c(=O)[nH]1 [ArgJBNTs]	successful delivery of small RNAs, mRNAs, and albumin (protein)
